# Test results: the Kinase Knowledgebase extract (Sharma et al. 2016)
# Target: PIK3CA (human) (UniProt P42336)
# Experiment: Assessment of PIK3CA Kinase Activity
# Chain of PIK3CA (human) (P42336 whole entry, looked up): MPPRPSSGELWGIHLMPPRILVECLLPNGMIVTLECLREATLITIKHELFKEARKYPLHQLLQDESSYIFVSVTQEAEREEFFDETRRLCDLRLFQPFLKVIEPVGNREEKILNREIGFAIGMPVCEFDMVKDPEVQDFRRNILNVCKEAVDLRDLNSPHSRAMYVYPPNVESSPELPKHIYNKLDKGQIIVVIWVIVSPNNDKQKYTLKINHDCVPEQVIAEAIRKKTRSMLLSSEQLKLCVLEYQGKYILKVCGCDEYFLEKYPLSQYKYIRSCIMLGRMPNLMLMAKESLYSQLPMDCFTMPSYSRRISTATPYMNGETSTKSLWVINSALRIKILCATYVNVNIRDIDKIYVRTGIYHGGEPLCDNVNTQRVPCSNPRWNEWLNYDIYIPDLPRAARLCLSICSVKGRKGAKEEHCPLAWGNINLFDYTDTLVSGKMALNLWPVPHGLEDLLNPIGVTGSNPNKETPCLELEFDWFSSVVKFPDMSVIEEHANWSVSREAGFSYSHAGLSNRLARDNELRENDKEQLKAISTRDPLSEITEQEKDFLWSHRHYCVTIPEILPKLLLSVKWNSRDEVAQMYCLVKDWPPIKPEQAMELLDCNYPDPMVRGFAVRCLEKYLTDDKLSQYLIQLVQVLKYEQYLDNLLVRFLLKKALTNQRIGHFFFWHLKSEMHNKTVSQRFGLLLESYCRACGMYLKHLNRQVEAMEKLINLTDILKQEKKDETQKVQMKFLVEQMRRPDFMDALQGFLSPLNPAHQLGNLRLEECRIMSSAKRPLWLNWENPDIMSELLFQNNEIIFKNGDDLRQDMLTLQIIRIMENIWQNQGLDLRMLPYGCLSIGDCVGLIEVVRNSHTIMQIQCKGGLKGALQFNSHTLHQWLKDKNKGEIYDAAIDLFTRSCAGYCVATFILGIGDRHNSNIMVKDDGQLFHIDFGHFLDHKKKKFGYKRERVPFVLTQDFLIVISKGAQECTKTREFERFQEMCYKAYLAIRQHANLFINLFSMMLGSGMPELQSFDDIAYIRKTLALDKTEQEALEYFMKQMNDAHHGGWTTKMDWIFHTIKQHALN
row,IC50,SMILES
1,< 1000 nM,CC(C)n1ncnc1-c1cc2n(n1)-c1cc(C3CN(C(=O)CO)C3)ccc1OCC2
2,< 1000 nM,Cc1nc(-c2cn3c(n2)-c2ccc(OCC(F)(F)F)cc2OCC3)n(C(C)C)n1
3,< 1000 nM,NC(=O)C1CC1c1ccc2c(c1)OCCn1cc(-c3ncnn3CC(F)(F)F)nc1-2 (stereo not given)
4,< 1000 nM,NC(=O)[C@@H]1CCN1c1ccc2c(c1)OCCn1cc(-c3ncnn3CC(F)(F)F)nc1-2
5,< 1000 nM,CC(C)n1nc(N)nc1-c1cn2c(n1)-c1ccccc1OCC2
6,< 1000 nM,CN(C)c1cc2c(cn1)-c1nc(-c3ncnn3-c3ccccc3Cl)cn1CCO2
7,< 1000 nM,CC(C)n1nc(CO)nc1-c1cn2c(n1)-c1cnc(N3CC(F)(F)C3)cc1OCC2
8,< 1000 nM,Cc1nc(-c2cn3c(n2)-c2ccc(C4CCN(C(C)(C)C(N)=O)CC4)cc2OCC3)n(C(C)C)n1
9,< 1000 nM,CC(C)n1ncnc1-c1cn2c(n1)-c1ccc([C@@H](C)C(N)=O)cc1OCC2
10,< 1000 nM,CO[C@@H]1C[C@@H](C(N)=O)N(c2cc3c(cn2)-c2nc(-c4ncnn4C(C)C)cn2CCO3)C1
11,< 1000 nM,Cc1nc(-c2cn3c(n2)-c2ccc(C#N)cc2OCC3)n(C(C)C)n1
12,< 1000 nM,CC(C)n1nc(N)nc1-c1cn2c(n1)-c1ccc(-c3cnn(CCO)c3)cc1OCC2
13,< 1000 nM,CC(C)n1ncnc1-c1cn2c(n1)-c1ccc(C3CCN(CC(=O)NC(C)(C)C)CC3)cc1OCC2
14,< 1000 nM,CC(C)n1ncnc1-c1cn2c(n1)-c1ccc(=O)[nH]c1OCC2
15,< 1000 nM,CC(C)n1ncnc1-c1cn2c(n1)-c1ccc(OC3CC3)cc1OCC2
16,< 1000 nM,CC(C)n1ncnc1-n1cc2c(n1)-c1ccc(-c3cn[nH]c3)cc1OCC2
17,< 1000 nM,CC(C)n1ncnc1-n1cc2c(n1)-c1ccc(C3CN(CC(N)=O)C3)cc1OCC2
18,< 1000 nM,NC(=O)[C@@H]1CCCCN1c1ccc2c(c1)OCCn1cc(-c3ncnn3CC(F)(F)F)nc1-2
19,< 1000 nM,C[C@@H](Oc1ccc2c(c1)OCCn1cc(-c3ncnn3CC(F)(F)F)nc1-2)C(N)=O
20,< 1000 nM,CC(C)(CO)NC(=O)c1ccc2c(c1)-c1nc(-c3ncnn3C3CCS(=O)(=O)C3)cn1CCO2 (stereo not given)
21,< 1000 nM,CC(C)n1nc(CC(N)=O)nc1-c1cn2c(n1)-c1ccc(Br)cc1OCC2
22,< 1000 nM,CC[C@H](Oc1ccc2c(c1)OCCn1cc(-c3ncnn3CC(F)(F)F)nc1-2)C(N)=O
23,< 1000 nM,CC(C)n1ncnc1-c1cn2c(n1)-c1cnc(N3CC[C@@H](O)C3)cc1OCC2

row,IC50,SMILES
1,< 1000 nM,CC(C)n1ncnc1-c1cn2c(n1)-c1ccc(C3C(=O)NNC3=O)cc1OCC2
2,< 1000 nM,CNC(=O)CN1CC(c2ccc3c(c2)OCCn2cc(-c4ncnn4C(C)C)nc2-3)C1
3,< 1000 nM,O=C(c1ccc2c(c1)-c1nc(-c3ncnn3CC(F)(F)F)cn1CCO2)N1CCC(O)CC1
4,< 1000 nM,CC(C)n1ncnc1-c1cn2c(n1)-c1ccc(N3CC(C(N)=O)C3)nc1OCC2
5,< 1000 nM,CC(C)n1ncnc1-c1cn2c(n1)-c1ccc(NCC3(N)COC3)cc1OCC2
6,< 1000 nM,N#Cc1ccc2c(c1)-c1nc(-c3nc(N)nn3CC(F)(F)F)cn1CCO2
7,< 1000 nM,CC(C)n1ncnc1-c1cn2c(n1)-c1cc(C(F)F)ncc1OCC2
8,< 1000 nM,CC(C)n1nc(N)nc1-c1cn2c(n1)-c1cc(F)c(F)cc1OCC2
9,< 1000 nM,CC(C)n1ncnc1-c1cn2c(n1)-c1cc(-c3ccc[nH]c3=O)ncc1OCC2
10,< 1000 nM,CNC(=O)Cn1ccnc1-c1cn2c(n1)-c1ccc(-c3cnn(CC(C)(C)O)c3)cc1OCC2
11,< 1000 nM,CCOC(=O)C(C)(C)n1cc(-c2ccc3c(c2)OCCn2cc(-c4nc(C)nn4C(C)C)nc2-3)cn1
12,< 1000 nM,CC(C)n1ncnc1-c1cc2n(n1)-c1cc(C3CN(S(C)(=O)=O)C3)ccc1OCC2
13,< 1000 nM,CC(C)n1ncnc1-c1cn2c(n1)-c1ccc(N3CCCCC3C(N)=O)cc1OCC2 (stereo not given)
14,< 1000 nM,CC(C)n1ncnc1-c1cc2n(n1)-c1cc(C3CN(CC(N)=O)C3)ccc1OCC2
15,< 1000 nM,CCN(CC)CCn1cc(-c2ccc3c(c2)OCCn2cc(-c4ncnn4C(C)C)nc2-3)cn1
16,< 1000 nM,CC(C)n1ncnc1-c1cn2c(n1)-c1ccc(OC3COC3)cc1OCC2
17,< 1000 nM,CC(C)n1ncnc1-c1cn2c(n1)-c1cc(N3CCNC(=O)C3)ncc1OCC2
18,< 1000 nM,NC(=O)[C@@H]1CCCN1c1cc2c(cn1)-c1nc(-c3ncnn3-c3ccc(F)cc3F)cn1CCO2
19,< 1000 nM,Cc1nc(-c2cn3c(n2)-c2ccc(C4CCN(CCO)CC4)cc2OCC3)n(C(C)C)n1
20,< 1000 nM,Cc1nc(-c2cn3c(n2)-c2ccc(C4CCN(CC(N)=O)CC4)cc2OCC3)n(C(C)C)n1
21,< 1000 nM,CC(C)n1nc(N)nc1-c1cn2c(n1)-c1cc(-c3ccc(Cl)cc3)ccc1OCC2
22,< 1000 nM,Cc1nc(-c2cn3c(n2)-c2ccc(C4CC4)cc2OCC3)n(C(C)CO)n1 (stereo not given)
23,< 1000 nM,Cc1nc(-c2cn3c(n2)-c2ccc(C4CCN(CC(=O)NC(C)C)CC4)cc2OCC3)n(C(C)C)n1

row,IC50,SMILES
1,< 1000 nM,COCc1nc(-c2cn3c(n2)-c2ccccc2OCC3)n(C(C)C)n1
2,< 1000 nM,CC(C)n1ncnc1-c1cn2c(n1)-c1cnc(N3C[C@@H](O)C[C@H]3C(N)=O)cc1OCC2
3,58 nM,Fc1ccc(-n2ncnc2-n2cc3c(n2)-c2ccc(Br)cc2OCC3)c(F)c1
4,< 1000 nM,Cc1nc(-c2cn3c(n2)-c2ccc(-c4cnn(CCO)c4)cc2OCC3)n(C(C)C)n1
5,< 1000 nM,CC(C)n1ncnc1-c1cn2c(n1)-c1cnc(N3C[C@H](F)C[C@H]3C(N)=O)cc1OCC2
6,< 1000 nM,Cc1nc(-c2cn3c(n2)-c2ccc(N4CC[C@H]4C(N)=O)cc2OCC3)n(CC(F)(F)F)n1
7,< 1000 nM,CC(C)NC(=O)CN1CCC(c2ccc3c(c2)OCCn2cc(-c4ncnn4C(C)C)nc2-3)CC1
8,< 1000 nM,CC(C)n1ncnc1-c1cn2c(n1)-c1cnc(N3CC(O)C3)cc1OCC2
9,< 1000 nM,Cc1nc(-c2cn3c(n2)-c2ccc(F)cc2OCC3)n(C(C)C)n1
10,< 1000 nM,CC(C)n1ncnc1-c1cn2c(n1)-c1ccc(C(=O)NO)cc1OCC2
11,< 1000 nM,CC(C)n1ncnc1-c1cn2c(n1)-c1cc(-c3cncnc3)ccc1OCC2
12,< 1000 nM,NC(=O)[C@@H]1COCCN1c1ccc2c(c1)OCCn1cc(-c3ncnn3CC(F)(F)F)nc1-2
13,< 1000 nM,CC(C)n1ncnc1-c1cn2c(n1)-c1cnc(N3C[C@H](C#N)C[C@H]3C(N)=O)cc1OCC2
14,< 1000 nM,CC(C)[C@@H](Oc1ccc2c(c1)OCCn1cc(-c3ncnn3CC(F)(F)F)nc1-2)C(N)=O
15,< 1000 nM,CC(C)n1ncnc1-c1cn2c(n1)-c1ccc(OC3CCC3)cc1OCC2
16,< 1000 nM,CONC(=O)c1ccc2c(c1)OCCn1cc(-c3ncnn3C(C)C)nc1-2
17,< 1000 nM,CC(C)n1ncnc1-c1cn2c(n1)-c1ccc(OCC(F)(F)F)cc1OCC2
18,< 1000 nM,Cc1nc(-c2cn3c(n2)-c2cc(-c4ccc[nH]c4=O)ccc2OCC3)n(C(C)C)n1
19,< 1000 nM,CC(C)n1ncnc1-c1cn2c(n1)-c1ccc(-c3ccc(N)nc3)cc1OCC2
20,< 1000 nM,Cc1nc(-c2cn3c(n2)-c2ccc(CN)cc2OCC3)n(-c2ccc(F)cc2F)n1
21,< 1000 nM,CC(C)n1ncnc1-c1cn2c(n1)-c1cnc(N3CCOCC3)cc1OCC2
22,< 1000 nM,C[C@H](Nc1ccc2c(c1)OCCn1cc(-c3ncnn3CC(F)(F)F)nc1-2)C(N)=O
23,< 1000 nM,CC(C)(Oc1ccc2c(c1)OCCn1cc(-c3ncnn3CC(F)(F)F)nc1-2)C(N)=O

row,SMILES,IC50
1,CC(C)n1ncnc1-c1cn2c(n1)-c1ccc([C@@H]3C[C@H]4CC[C@@H](C3)N4CC(N)=O)cc1OCC2,< 1000 nM
